“And” between values parts separate entries of the source, which are not always exact repeats. Identical values can stand only once. Inconclusive results and toxic doses are left out. Rule for the calls: active = survival T/C of 150% or more; inactive = T/C below 125% in these data.
Test system: P388 leukemia ip, CD2F1 mice, survival T/C
Assay: NCI In Vivo Anticancer Drug Screen. Data for tumor model P388 Leukemia (intraperitoneal) in CD2F1 (CDF1) mice
Conditions: endpoint: median survival time, higher = longer survival
Procedure, shortened: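 Mice carrying the transplanted tumor received test compound or vehicle. Survival was recorded in each group, and the value is the treated-group measurement divided by that of the vehicle-treated control group.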

[1] = dose: 50.0 mg/kg/injection, schedule: Q01DX009 (ip), vehicle: saline
[2] = dose: 100.0 mg/kg/injection, schedule: Q01DX009 (ip), vehicle: saline
[3] = dose: 12.5 mg/kg/injection, schedule: Q01DX009 (ip), vehicle: saline
[4] = dose: 25.0 mg/kg/injection, schedule: Q01DX005 (ip), vehicle: saline
[5] = dose: 50.0 mg/kg/injection, schedule: Q01DX005 (ip), vehicle: saline
[6] = dose: 100.0 mg/kg/injection, schedule: Q01DX005 (ip), vehicle: saline
[7] = dose: 200.0 mg/kg/injection, schedule: Q01DX005 (ip), vehicle: saline
[8] = dose: 200.0 mg/kg/injection, schedule: Q01DX009 (ip), vehicle: saline
[9] = dose: 50.0 mg/kg/injection, schedule: Q01DX005 (ip), vehicle: saline with Tween-80

Measured: T/C

N#C/C(=C/c1ccc(Cl)cc1)C(=O)NC(N)=O
inactive: dose: 100.0 mg/kg/injection, schedule: Q04DX002 (ip), vehicle: saline 100 % of control | dose: 200.0 mg/kg/injection, schedule: Q04DX002 (ip), vehicle: saline 105 % of control | dose: 400.0 mg/kg/injection, schedule: Q04DX002 (ip), vehicle: saline 107 % of control

O=c1[nH]c(=O)c2nc3c([N+](=O)[O-])ccc(-c4cccc5ccccc45)c3nc2[nH]1
inactive: [1] 109 % of control | [2] 100 % of control

N=C(N)c1ccc(/C=C/c2cc3cc(C(=N)N)ccc3[nH]2)cc1
inactive: dose: 6.25 mg/kg/injection, schedule: Q04DX003 (ip), vehicle: saline 101 % of control and 108 % of control | dose: 12.5 mg/kg/injection, schedule: Q04DX003 (ip), vehicle: saline 99 % of control and 102 % of control | dose: 25.0 mg/kg/injection, schedule: Q04DX003 (ip), vehicle: saline 99 % of control and 101 % of control

CC1=CC(=C2C=CC(=[N+](C)C)C=C2)C=C(C)S1
inactive: dose: 3.12 mg/kg/injection, schedule: Q01DX009 (ip), vehicle: distilled water + Tween-80 + alcohol 109 % of control | dose: 6.25 mg/kg/injection, schedule: Q01DX009 (ip), vehicle: distilled water + Tween-80 + alcohol 119 % of control | dose: 12.5 mg/kg/injection, schedule: Q01DX009 (ip), vehicle: distilled water + Tween-80 + alcohol 120 % of control

O=[N+]([O-])c1cnc(Sc2ncccn2)c([N+](=O)[O-])c1
inactive: dose: 3.12 mg/kg/injection, schedule: Q01DX009 (ip), vehicle: saline 96 % of control | dose: 3.12 mg/kg/injection, schedule: Q01DX009 (ip), vehicle: suspension in saline 107 % of control | dose: 6.25 mg/kg/injection, schedule: Q01DX009 (ip), vehicle: saline 96 % of control | dose: 6.25 mg/kg/injection, schedule: Q01DX009 (ip), vehicle: suspension in saline 104 % of control | [3] 99 % of control | dose: 12.5 mg/kg/injection, schedule: Q01DX009 (ip), vehicle: suspension in saline 98 % of control and 108 % of control | dose: 25.0 mg/kg/injection, schedule: Q01DX009 (ip), vehicle: suspension in saline 105 % of control | dose: 50.0 mg/kg/injection, schedule: Q01DX009 (ip), vehicle: suspension in saline 99 % of control and 107 % of control

CC1(C)OC(COCCOCCOCCCC#N)C(COCCOCCOCCCC#N)O1 (stereo not drawn)
inactive: [4] 100 % of control | [5] 103 % of control | [6] 107 % of control | [7] 98 % of control

COc1ccc(C(C)c2cc3c(cc2OCC(C)=O)OCO3)cc1 (stereo not drawn)
inactive: dose: 60.0 mg/kg/injection, schedule: Q01DX005 (ip), vehicle: saline with Tween-80 97 % of control | dose: 120.0 mg/kg/injection, schedule: Q01DX005 (ip), vehicle: saline with Tween-80 94 % of control | dose: 240.0 mg/kg/injection, schedule: Q01DX005 (ip), vehicle: saline with Tween-80 94 % of control

CCN(CC)c1ccc(Pc2ccc(N(CC)CC)cc2)cc1
inactive: [3] 104 % of control | dose: 25.0 mg/kg/injection, schedule: Q01DX009 (ip), vehicle: saline 108 % of control | [1] 99 % of control and 88 % of control | [8] 92 % of control

COc1ccc(/C=C2\SC(=S)N(C3CC3)C2=O)cc1OC
inactive: dose: 50.0 mg/kg/injection, schedule: Q01DX005 (ip), vehicle: Klucel (hydroxypropylcellulose) (HPC) 94 % of control | dose: 100.0 mg/kg/injection, schedule: Q01DX005 (ip), vehicle: Klucel (hydroxypropylcellulose) (HPC) 88 % of control

Cn1c(CN(CCN(Cc2nc3ccccc3n2C)Cc2nc3ccccc3n2C)Cc2nc3ccccc3n2C)nc2ccccc21
inactive: [9] 100 % of control | dose: 100.0 mg/kg/injection, schedule: Q01DX005 (ip), vehicle: saline with Tween-80 96 % of control | dose: 200.0 mg/kg/injection, schedule: Q01DX005 (ip), vehicle: saline with Tween-80 101 % of control

O=[N+]([O-])c1ccc(S(=O)(=O)Nc2c([N+](=O)[O-])cc([N+](=O)[O-])c3ccccc23)cc1
inactive: dose: 50.0 mg/kg/injection, schedule: Q04DX003 (ip), vehicle: saline with Tween-80 92 % of control | dose: 100.0 mg/kg/injection, schedule: Q04DX003 (ip), vehicle: saline with Tween-80 95 % of control | dose: 200.0 mg/kg/injection, schedule: Q04DX003 (ip), vehicle: saline with Tween-80 105 % of control

O=S1(=O)Cc2c(Br)c(Br)c(Br)c(Br)c2C1
inactive: dose: 12.5 mg/kg/injection, schedule: Q01DX009 (ip), vehicle: saline sonified 109 % of control | dose: 25.0 mg/kg/injection, schedule: Q01DX009 (ip), vehicle: saline sonified 109 % of control | dose: 50.0 mg/kg/injection, schedule: Q01DX009 (ip), vehicle: saline sonified 109 % of control

COC(=O)NCCn1c([N+](=O)[O-])cnc1C
inactive: dose: 100.0 mg/kg/injection, schedule: Q01DX001 (ip), vehicle: saline with Tween-80 99 % of control | dose: 200.0 mg/kg/injection, schedule: Q01DX001 (ip), vehicle: saline with Tween-80 98 % of control | dose: 400.0 mg/kg/injection, schedule: Q01DX001 (ip), vehicle: saline with Tween-80 106 % of control

CCc1cn[nH]c(=O)c1
inactive: [1] 110 % of control | [2] 96 % of control | [8] 104 % of control

COc1ccc(OC)c(C(=O)C=C(C(F)(F)F)C(F)(F)F)c1
inactive: dose: 25.0 mg/kg/injection, schedule: Q01DX009 (ip), vehicle: other 120 % of control | dose: 50.0 mg/kg/injection, schedule: Q04DX003 (ip), vehicle: other 113 % of control | dose: 66.0 mg/kg/injection, schedule: Q04DX003 (ip), vehicle: other 109 % of control | dose: 100.0 mg/kg/injection, schedule: Q01DX009 (ip), vehicle: other 95 % of control | dose: 100.0 mg/kg/injection, schedule: Q04DX003 (ip), vehicle: other 109 % of control | dose: 150.0 mg/kg/injection, schedule: Q04DX003 (ip), vehicle: other 113 % of control

COc1cc(C2c3cc4c(cc3OC(C)(O)C2C)OCO4)cc(OC)c1OC (stereo not drawn)
inactive: dose: 12.5 mg/kg/injection, schedule: Q01DX005 (ip), vehicle: saline 104 % of control and 105 % of control | dose: 25.0 mg/kg/injection, schedule: Q01DX005 (ip), vehicle: saline with Tween-80 107 % of control | [4] 105 % of control | [9] 103 % of control | [5] 102 % of control and 105 % of control | [6] 107 % of control and 113 % of control | [7] 111 % of control

CSc1ccc(/C=N/N=c2ccn(-c3ccc(Cl)cc3)cc2)cc1
inactive: dose: 25.0 mg/kg/injection, schedule: Q01DX001 (ip), vehicle: Klucel (hydroxypropylcellulose) (HPC) 100 % of control | dose: 50.0 mg/kg/injection, schedule: Q01DX001 (ip), vehicle: Klucel (hydroxypropylcellulose) (HPC) 102 % of control | dose: 100.0 mg/kg/injection, schedule: Q01DX001 (ip), vehicle: Klucel (hydroxypropylcellulose) (HPC) 100 % of control and 91 % of control

N#CC(Br)(Br)C#N
inactive: dose: 3.13 mg/kg/injection, schedule: Q01DX009 (ip), vehicle: Klucel (hydroxypropylcellulose) (HPC) 117 % of control | dose: 6.25 mg/kg/injection, schedule: Q01DX009 (ip), vehicle: Klucel (hydroxypropylcellulose) (HPC) 114 % of control

O=C(O)CSCc1cc2c3ccccc3sc2c2ccccc12
inactive: dose: 60.0 mg/kg/injection, schedule: Q01DX005 (ip), vehicle: Klucel (hydroxypropylcellulose) (HPC) 100 % of control | dose: 120.0 mg/kg/injection, schedule: Q01DX005 (ip), vehicle: Klucel (hydroxypropylcellulose) (HPC) 93 % of control | dose: 240.0 mg/kg/injection, schedule: Q01DX005 (ip), vehicle: Klucel (hydroxypropylcellulose) (HPC) 96 % of control

CSCCC(NC(=O)C(Cc1ccccc1)NC(=O)CNC(=O)C(C)NC(=O)C(N)Cc1ccc(O)cc1)C(N)=O (stereo not drawn)
inactive: dose: 8.75 mg/kg/injection, schedule: Q01DX005 (ip), vehicle: saline 103 % of control | dose: 17.5 mg/kg/injection, schedule: Q01DX005 (ip), vehicle: saline 107 % of control | dose: 35.0 mg/kg/injection, schedule: Q01DX005 (ip), vehicle: saline 100 % of control | dose: 70.0 mg/kg/injection, schedule: Q01DX005 (ip), vehicle: saline 100 % of control | dose: 140.0 mg/kg/injection, schedule: Q01DX005 (ip), vehicle: saline 104 % of control

Reference: PubChem BioAssay AID330 (DTP/NCI, 2004)
